pIC50: −log10 of the molar value.
Experiments:
[1] = tested on: H3K23 acetylation in U-2 OS cells; test: U2OS cell H3K23 acetylation IF assay (immunofluorescence); type: cell-based; details: Homo sapiens; for pIC50: 24 h incubation, read-out: H3K23 ac/IC50; for Emax: inhibition of H3K23 acetylation, 24 h, read-out: Maximum inhibition rate/Imax %
Protocol: Test Example 3: U2OS Cell H3K23 Acetylation IF Assay (Immunofluorescence)
I. Reagents and Instruments
• 1. U-2 OS (ATCC HTB-96) • 2. Recombinant anti-histone H3 (acetyl K23) antibody (Abcam, ab177275) • 3. Goat anti-rabbit IgG (H+L), Superclonal™ recombinant secondary antibody, Alexa Fluor 488 (Thermofisher, A27034) • 4. Hoechst 33342 (Sigma-Aldrich, B2261-25MG) • 5. Assay plate, 96-well, black with clear bottom (Corning, 3603) • 6. Bovine serum albumin (BSA) (Sangon Biotech, A500023-0100) • 7. Methanol (GENERAL-REAGENT, G75851D) • 8. Tween-20 (Sangon, A100777-0500) • 9. Triton X-100 (Solarbio, T8200) • 10. PBS (Shanghai BasalMedia Technologies Co., Ltd., B320KJ) • 11. 20×PBS buffer (Sangon Biotech, B548117-0500) • 12. McCoy's 5A medium (Gibco, 16600082) • 13. 0.25% trypsin-EDTA (1×) (Gibco, 25200-072) • 14. Pen strep (Gibco, 15140-122) • 15. DPBS (1×) (Gibco, 14190-144) • 16. FBS (Gibco, 10091148) • 17. Automatic cell counter (Countstar, IC1000) • 18. Thermostatic incubator (Thermo, 1160) • 19. ImageXpress® Micro Confocal (Molecular Device)
a. Blocking buffer: PBS (Shanghai BasalMedia)+BSA (final concentration of 1%)+Triton X-100 (final concentration of 0.5%).
b. Wash buffer: PBS (20×PBS was diluted to 1×PBS)+Tween-20 (final concentration of 0.1%).
c. Primary antibody solution: Recombinant anti-histone H3 (acetyl K23) antibody was diluted in blocking buffer at a ratio of 1:1000.
d. Secondary antibody solutions: Goat anti-rabbit IgG (H+L), Superclonal™ recombinant secondary antibody, Alexa Fluor 488 was diluted in blocking buffer at a ratio of 1:1000, and Hoechst 33342 was diluted in blocking buffer at a ratio of 1:5000.
e. Compounds: initial concentration of 100 μM, 3-fold dilution, 9 gradient concentrations. All compound concentrations were diluted 500-fold with McCoy's 5A medium for later use.
(§1) 2. Experimental Procedure
2.1. Cell Treatment (Day One)
a. The state of U-2 OS cells was observed under a microscope to make sure that the cell confluence was about 90%.
b. The cell supernatant was discarded. The cells were rinsed with DPBS once, and the DPBS was removed. The cells were digested with a proper amount of trypsin and left to stand at room temperature or 37° C. for 5 min.
c. The digestion was stopped with an equal volume of medium containing 10% FBS, and the cell suspension was collected and centrifuged at 300 g for 3 min. The cells were suspended in a proper amount of fresh medium.
d. The resulting cell suspension was collected and cell counting was performed.
e. The cell suspension was diluted and plated at 9000 cells/50 μL/well.
f. The wells on the periphery were blocked with 100 μL of PBS.
g. The cell culture plates were incubated overnight in a 37° C., 5% carbon dioxide incubator.
2.2. Compound Addition (Day Two)
a. 50 μL of diluted compound was added to the cell supernatant (50 μL/well) in each cell plate.
b. After the addition, the cell plates were incubated in a 37° C., 5% carbon dioxide incubator for 24 h.
2.3. Immunofluorescence Staining and Measurement (Day Three to Day Four)
a. After the 24-hour incubation, the cell plates were removed from the incubator. The medium was discarded, and plates were fixed with pre-cooled methanol at room temperature for 10 min.
b. The fixation buffer was discarded, and the plates were quickly washed with wash buffer 3 times and then slowly washed 3 times (5 min/wash).
c. The wash buffer was discarded, and blocking buffer was added. The plates were incubated at room temperature for 60 min.
d. The blocking buffer was discarded, and the prepared primary antibody solution was added. The plates were incubated overnight at 4° C.
e. The primary antibody solution was discarded, and the prepared secondary antibody solution was added. The plates were incubated at room temperature for 60 min.
f. The secondary antibody solution was discarded, and the plates were quickly washed with wash buffer 3 times and then slowly washed 5 times (5 min/wash).
g. The plates were tested on ImageXpress® Micro Confocal.
h. […]

human KAT6A = human KAT6A (Homo sapiens (Human), UniProt Q92794); test: KAT6 enzyme activity assay (AlphaScreen method), KAT6A; type: biochemical; details: inhibition of the enzyme human KAT6A
human KAT6A, sequence (Q92794 whole entry): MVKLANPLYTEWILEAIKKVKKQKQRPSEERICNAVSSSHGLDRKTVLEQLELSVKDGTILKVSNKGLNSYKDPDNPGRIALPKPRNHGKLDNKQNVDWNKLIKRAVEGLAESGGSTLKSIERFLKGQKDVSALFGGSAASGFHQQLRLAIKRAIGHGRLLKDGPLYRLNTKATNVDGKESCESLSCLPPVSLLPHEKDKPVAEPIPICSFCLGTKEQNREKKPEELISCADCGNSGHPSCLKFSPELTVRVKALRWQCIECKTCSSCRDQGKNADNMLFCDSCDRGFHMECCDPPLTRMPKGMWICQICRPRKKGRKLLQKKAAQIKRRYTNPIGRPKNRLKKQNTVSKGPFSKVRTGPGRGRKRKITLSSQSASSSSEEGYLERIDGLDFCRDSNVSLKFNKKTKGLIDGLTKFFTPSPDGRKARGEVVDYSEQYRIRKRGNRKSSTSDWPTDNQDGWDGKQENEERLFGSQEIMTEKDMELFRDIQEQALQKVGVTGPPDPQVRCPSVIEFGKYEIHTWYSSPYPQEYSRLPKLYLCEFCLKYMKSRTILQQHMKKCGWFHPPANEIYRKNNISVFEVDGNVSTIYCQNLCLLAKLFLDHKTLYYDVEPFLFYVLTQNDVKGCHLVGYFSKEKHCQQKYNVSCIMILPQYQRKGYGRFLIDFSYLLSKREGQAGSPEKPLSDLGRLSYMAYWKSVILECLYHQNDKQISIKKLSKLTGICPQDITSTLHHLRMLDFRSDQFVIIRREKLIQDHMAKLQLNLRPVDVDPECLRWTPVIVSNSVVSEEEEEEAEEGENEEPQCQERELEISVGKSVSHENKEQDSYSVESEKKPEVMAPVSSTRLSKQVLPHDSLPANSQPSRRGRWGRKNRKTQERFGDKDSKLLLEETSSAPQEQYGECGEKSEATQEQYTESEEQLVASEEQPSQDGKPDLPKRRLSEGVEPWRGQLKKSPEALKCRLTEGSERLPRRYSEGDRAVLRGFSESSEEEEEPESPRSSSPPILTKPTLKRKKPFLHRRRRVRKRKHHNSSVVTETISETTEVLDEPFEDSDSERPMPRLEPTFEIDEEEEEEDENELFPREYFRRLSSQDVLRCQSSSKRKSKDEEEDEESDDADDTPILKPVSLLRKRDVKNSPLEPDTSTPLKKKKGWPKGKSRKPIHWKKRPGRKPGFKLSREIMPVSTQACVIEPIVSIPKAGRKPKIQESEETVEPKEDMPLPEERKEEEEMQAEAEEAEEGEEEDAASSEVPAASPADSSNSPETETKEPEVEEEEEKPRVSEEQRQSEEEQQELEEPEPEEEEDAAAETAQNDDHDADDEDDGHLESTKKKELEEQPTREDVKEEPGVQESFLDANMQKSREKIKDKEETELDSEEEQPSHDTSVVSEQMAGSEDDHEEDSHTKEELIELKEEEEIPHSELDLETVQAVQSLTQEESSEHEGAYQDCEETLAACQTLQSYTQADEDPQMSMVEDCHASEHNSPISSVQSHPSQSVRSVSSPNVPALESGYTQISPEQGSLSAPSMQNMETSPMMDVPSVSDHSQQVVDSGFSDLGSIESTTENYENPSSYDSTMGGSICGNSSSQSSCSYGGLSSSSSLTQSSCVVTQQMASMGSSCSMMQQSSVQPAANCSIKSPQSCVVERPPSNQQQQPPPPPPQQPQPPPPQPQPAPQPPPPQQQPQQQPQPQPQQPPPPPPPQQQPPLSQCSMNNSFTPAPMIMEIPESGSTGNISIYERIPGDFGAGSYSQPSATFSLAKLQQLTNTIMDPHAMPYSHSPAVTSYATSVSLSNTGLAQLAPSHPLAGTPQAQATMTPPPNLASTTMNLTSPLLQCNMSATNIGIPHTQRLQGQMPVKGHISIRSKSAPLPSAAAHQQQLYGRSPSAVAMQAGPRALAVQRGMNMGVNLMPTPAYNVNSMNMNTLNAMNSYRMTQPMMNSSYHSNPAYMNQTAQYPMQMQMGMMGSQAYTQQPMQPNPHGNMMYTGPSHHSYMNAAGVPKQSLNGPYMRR
Source text: Test Example 1: KAT6 Enzyme Activity Assay (AlphaScreen Method)
I. Reagents and instrument • 1. KAT6A (customized by Chempartner) • 2. Ovalbumin (Sigma-Aldrich, A5378-5G) • 3. 2 M Tris-HCl solution, pH 7.8, sterile (Sangon, B548140-0500) • 4. 5 M NaCl solution (Sangon, B548121-0100) • 5. EDTA (0.5 M), pH 8.0, RNase-free (Thermofisher, AM9260G) • 6. Tween-20 (Sangon, A100777-0500) • 7. DTT, 1 M (Invitrogen, P2325) • 8. Acetyl coenzyme A (Ac-CoA, CAYMAN, Cat. No. 16160) • 9. Recombinant histone H3.1 biotinylated (human) (Active Motif 31696) • 10. 384-well plate, light gray (Perkin Elmer, Cat. No. 6005350) • 11. Anacardic acid (MCE, Cat. No. HY—N2020) • 12. AlphaScreen streptavidin donor beads, 5 mg (PerkinElmer, 6760002) • 13. AlphaScreen protein A acceptor beads, 5 mg (PerkinElmer, 6760137M) • 14. Acetylated-lysine antibody #9441 (CST 9441S) • 15. PHERA star microplate reader (BMG labtech) • II. Experimental method
a. 1× assay buffer: 100 mM Tris-HCl, pH 7.8; 15 mM NaCl; 1 mM EDTA; 0.01% tween-20; 1 mM DTT; 0.01% m/v ovalbumin.
b. KAT enzyme solution: 1.25 nM (final concentration), prepared in 1× assay buffer.
c. Mixed substrate of Ac-CoA and H3: a mixed substrate of 1000 nM (final concentration) Ac-CoA and 55 nM (final concentration) H3, prepared in 1× assay buffer.
d. Compounds: initial concentration of 100 μM, 3-fold dilution, 10 gradient concentrations. All compound concentrations were diluted 83-fold with 1× assay buffer for later use.
e. Assay reagent: 8 ng/μL (final concentration) AlphaScreen protein A acceptor beads, 8 ng/μL AlphaScreen streptavidin donor beads, 1:1500 diluted acetylated-lysine antibody, and 100 μM anacardic acid; prepared in 1× assay buffer.
as §1
a. The prepared enzyme solution was added to a 384-well plate at 3 μL/well, and 3 μL of 1× assay buffer was added to each well in columns 23 and 24 (Min).
b. 3 μL of compound solution was added to each well, and 3 μL of buffer was added to each Min well; 3 μL of DMSO solution was added to each well in columns 1 and 2 (Max) as controls. The plate was centrifuged, shaken for 2 min, and incubated at room temperature for 15 min.
c. The mixed substrate of Ac-CoA and H3 was added at 6 μL/well, and the plate was centrifuged, shaken for 2 min, and incubated at room temperature for 20 min.
d. The assay reagent was added at 6 μL/well, and the plate was centrifuged, shaken for 2 min, and incubated in the dark at room temperature for 120 min.
e. Plate reading was performed on the microplate reader, and AlphaScreen counts were recorded.
f. Plotting was performed using the Graphpad software, and the IC50 values of the compounds were calculated.

Structure (SMILES)	pIC50 [1]	Emax [1] [%]	pIC50 (human KAT6A)
COc1ccccc1S(=O)(=O)Nc1noc2cc(Cn3cccn3)c3c(c12)OCCO3 [Compound 4, N-(5-((1H-pyrazol-1-yl)methyl)-2,3-dihydro-[1,4]dioxino[2′,3′:5,6]benzo[1,2-d]isoxazol-9-yl)-2-methoxybenzenesulfonamide]	8.82	106	8.38
COc1cc(N(C)C)ccc1S(=O)(=O)Nc1noc2cc(Cn3cccn3)c3c(c12)OCCC3 [Compound 11, N-(5-((1H-pyrazol-1-yl)methyl)-3,4-dihydro-2H-chromeno[8,7-d]isoxazol-9-yl)-4-(dimethylamino)-2-methoxybenzenesulfonamide]	8.68	103	8.80
O=S(=O)(Nc1noc2cc(Cn3cccn3)c3c(c12)OCCC3)c1cccc2c1OCC2 [Compound 12, N-(5-((1H-pyrazol-1-yl)methyl)-3,4-dihydro-2H-chromeno[8,7-d]isoxazol-9-yl)-2,3-dihydrobenzofuran-7-sulfonamide]			7.90
CCc1ccc(S(=O)(=O)Nc2noc3cc(Cn4cccn4)c4c(c23)OCCC4)c(OC)c1 [Compound 13, N-(5-((1H-pyrazol-1-yl)methyl)-3,4-dihydro-2H-chromeno[8,7-d]isoxazol-9-yl)-4-ethyl-2-methoxybenzenesulfonamide]			9.52
COc1cc2c(cc1S(=O)(=O)Nc1noc3cc(Cn4cccn4)c4c(c13)OCC4)CCC2 [Compound 15, N-(4-((1H-pyrazol-1-yl)methyl)-2,3-dihydrobenzofuro[7,6-d]isoxazol-8-yl)-6-methoxy-2,3-dihydro-1H-indene-5-sulfonamide]			8.92
CCOc1cc(C)ccc1S(=O)(=O)Nc1noc2cc(Cn3cccn3)c3c(c12)OCC3 [Compound 16, N-(4-((1H-pyrazol-1-yl)methyl)-2,3-dihydrobenzofuro[7,6-d]isoxazol-8-yl)-2-ethoxy-4-methylbenzenesulfonamide]			8.72
COc1cccc(C)c1S(=O)(=O)Nc1noc2cc(Cn3cccn3)c3c(c12)OCC3 [Compound 17, N-(4-((1H-pyrazol-1-yl)methyl)-2,3-dihydrobenzofuro[7,6-d]isoxazol-8-yl)-2-methoxy-6-methylbenzenesulfonamide]			7.98
COc1ccc(C)cc1S(=O)(=O)Nc1noc2cc(Cn3cccn3)c3c(c12)OCC3 [Compound 18, N-(4-((1H-pyrazol-1-yl)methyl)-2,3-dihydrobenzofuro[7,6-d]isoxazol-8-yl)-2-methoxy-5-methylbenzenesulfonamide]			7.90
COc1cc2c(cc1S(=O)(=O)Nc1noc3cc(Cn4cccn4)c4c(c13)OCC4)OCC2 [Compound 19, N-(4-((1H-pyrazol-1-yl)methyl)-2,3-dihydrobenzofuro[7,6-d]isoxazol-8-yl)-5-methoxy-2,3-dihydrobenzofuran-6-sulfonamide]			8.57
COc1cc(C)ccc1S(=O)(=O)Nc1noc2cc(Cn3cccn3)c3c(c12)OCC3 [Compound 22, N-(4-((1H-pyrazol-1-yl)methyl)-2,3-dihydrobenzofuro[7,6-d]isoxazol-8-yl)-2-methoxy-4-methylbenzenesulfonamide]	8.54	105	8.33
COc1cccc(OC)c1S(=O)(=O)Nc1noc2cc(C3CCCO3)c3c(c12)OCC3 (stereo not drawn) [Compound 26, 2,6-dimethoxy-N-(4-(tetrahydrofuran-2-yl)-2,3-dihydrobenzofuro[7,6-d]isoxazol-8-yl)benzenesulfonamide]			7.91
COc1cccc(OC)c1S(=O)(=O)Nc1noc2cc([C@H]3CCCO3)c3c(c12)OCC3 [Compound 26-1, (R)-2,6-dimethoxy-N-(4-(tetrahydrofuran-2-yl)-2,3-dihydrobenzofuro[7,6-d]isoxazol-8-yl)benzenesulfonamide]			8.28

Reference: patent publication US20250145637A1, “SULFONAMIDE DERIVATIVE, PREPARATION METHOD THEREFOR AND MEDICAL USE THEREOF” (Jiangsu Hengrui Pharmaceuticals Co. Ltd., priority 2021, published 2025)
